Results as given in patent US20260193245A1, “CD93 INHIBITORS” (UNIVERSITÄT BERN, priority 2022, published 2026).

Tests used:
[1] = biological target: T1, CD93 (Mus musculus, UniProt O89103); assay: Mouse MLL-AF9 compound screening: colony forming capacity of BL6 or CD93-/- GMPs (leukemia stem cells) from AML mice; format: cell-based; conditions: GMPs from AML mice cultured overnight with 10 uM and 1 uM compound; colonies counted after 7 days; FIG. 1 and FIG. 2
T1 construct: endogenous in cells; host or cells: FACS-purified GFP+ lin- Sca-1- c-kit(high) CD34+ Fcγ+ GMPs from MLL-AF9 AML mice (BL6; CD93-/- cells as control)
T1 sequence (O89103 23-644): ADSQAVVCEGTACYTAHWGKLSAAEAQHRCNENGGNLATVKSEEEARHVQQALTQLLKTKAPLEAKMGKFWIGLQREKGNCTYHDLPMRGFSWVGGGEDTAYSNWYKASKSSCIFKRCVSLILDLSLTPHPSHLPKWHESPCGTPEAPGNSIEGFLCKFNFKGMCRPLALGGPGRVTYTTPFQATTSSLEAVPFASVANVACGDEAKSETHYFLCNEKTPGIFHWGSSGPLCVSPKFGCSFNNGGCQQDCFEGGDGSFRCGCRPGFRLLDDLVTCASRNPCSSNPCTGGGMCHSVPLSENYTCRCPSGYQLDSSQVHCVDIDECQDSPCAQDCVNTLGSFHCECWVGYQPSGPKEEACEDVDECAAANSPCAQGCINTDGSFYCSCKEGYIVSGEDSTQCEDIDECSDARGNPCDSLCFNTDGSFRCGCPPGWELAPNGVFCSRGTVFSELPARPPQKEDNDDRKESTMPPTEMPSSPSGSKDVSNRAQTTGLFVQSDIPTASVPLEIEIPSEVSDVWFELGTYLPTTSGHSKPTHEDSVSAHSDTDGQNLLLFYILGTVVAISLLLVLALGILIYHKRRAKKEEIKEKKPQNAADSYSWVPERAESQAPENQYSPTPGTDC
Protocol: The colony formation (% of control) is shown on the Y-axis. […] Compounds showing inhibition of CD93, show no or a very low difference in colony formation of CD93−/− and at the same time a low percentage of colony formation of BL6.
For testing the small molecule compounds targeting CD93 on GMPs (leukemia stem cells) colony forming capacity, 10^3 FACS-purified GFP+lin-Sca-1-c-kithighCD34+Fcγ+ GMPs from BL6 or CD93−/− transduced AML mice were cultured overnight in 96-well U-bottom plates (NeoLab) in RPMI medium supplemented with 10% FCS, 1% L-glutamine, 1% penicillin/streptomycin, 100 ng/ml recombinant mouse (rm)-SCF (Miltenyi) and 20 ng/ml rm-TPO (ProSpec), in the presence or absence of 10 uM and 1 uM compound in technical triplicates. Compounds were dissolved in DMSO. The next day, cells were plated in semi-solid methylcellulose in the absence of any compound. Number of colonies was assessed by inverted light microscopy after 7 days.
In this assay, the semi-solid Media used was 1.27% Methylcellulose (1500cp, Sigma), supplemented with 15% FCS, 20% BIT (50 mg/ml BSA in IMDM, 1.44 U/ml rh-insulin [Actrapid; Novo Nordisk], and 250 ng/ml human holo transferrin [Prospec]), 100 μM 2-mercaptoethanol, 100 U/ml penicillin, 100 μg/ml streptomycin, 2 mM L-glutamine, and 50 ng/ml rm-SCF (Miltneyi), 10 ng/ml rm-IL-3 (Miltenyi), 10 ng/ml rm-IL-6 (Miltenyi), and 50 ng/ml rm-Flt3-ligand (ProSpec).

[2] = test system: human CML leukemia stem cells; conditions: Riether et al. 2021; cited from earlier work
[3] = test system: BL6 leukemia stem cells; conditions: murine CML model, BL6 and CD93-/- mice; Riether et al. 2021; cited from earlier work

SMILES	inhibition profile of CD93 (colony formation, % of control, BL6 vs CD93-/- GMPs) [1]	leukemia stem cell numbers and function [2]	colony formation of BL6 leukemia stem cells [3]
O=C(c1csc(-c2ccccc2)n1)N1CCN2CCC1C2 (centres unmarked) [Compound 22817]	good inhibition profiles of CD93		
CCN(CC)CCNC(=O)c1cc(Cl)c(N)cc1OC [metoclopramide]		diminished leukemia stem cell numbers and function	reduced colony formation of BL6 leukemia stem cells
O=C(c1ccn(-c2ccccc2)n1)N1CCCN(C2CC2)CC1 [Compound 22742]	good inhibition profiles of CD93		
COc1ccccc1-c1nc(C(=O)N2CCCN(C3CC3)CC2)cs1 [Compound 22394]	good inhibition profiles of CD93		
O=C(c1csc(-c2ccccc2)n1)N1CCCN(C2CC2)CC1 [Compound 21560]	good inhibition profiles of CD93		
CN(C)CCN(C)C(=O)c1csc(-c2ccccc2)n1 [Compound 22815]	good inhibition profiles of CD93		
O=C(c1nc2ccccc2s1)N1CCCN(C2CC2)CC1 [Compound 22393]	good inhibition profiles of CD93		
